Measurements reported in the supplement of paper PMC10307832.

These cell lines were tested with C1=CC2=C(C=C(C(=C2N=C1)O)N=NC3=CC4=C(C=C3)C=C(C=C4)S(=O)(=O)O)S(=O)(=O)O + CC1(C)CCC(c2ccc(Cl)cc2)=C(CN2CCN(c3ccc(C(=O)NS(=O)(=O)c4ccc(N[C@H](CCN5CCOCC5)CSc5ccccc5)c(S(=O)(=O)C(F)(F)F)c4)cc3)CC2)C1 [Navitoclax] (partner 0.5 µM) (assay: relative viability (nuclei count vs DMSO), 5 days (fraction); higher = more cells survive). Details: first compound 0.08 µM.
Outline: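 Values are medians from duplicate plates. Each reflects relative viability, defined as the nuclei count of treated wells over that of vehicle wells. Lung cancer cell lines in 1536-well plates were pin-tool dosed one day after seeding with one drug alone or with a fixed anchor-drug dose plus five library-drug doses (not always all listed) in √10 steps, then fixed, stained and imaged at 4× after 5 days.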

In order of rising relative viability:
1. NCI-H1793  0.48
2. LC-2-ad  0.516
3. HCC-15  0.754
4. NCI-H1915  0.818
5. PC-3 [JPC-3]  0.888
6. NCI-H3122  0.98
7. EKVX  0.985
8. HCC-827  1
9. LXF-289  1
10. PC-14  1.02
11. NCI-H1355  1.03
12. NCI-H2023  1.03
13. NCI-H1651  1.04
14. NCI-H1755  1.06
15. NCI-H1437  1.08
16. NCI-H23  1.09
17. NCI-H2228  1.09
18. RERF-LC-KJ  1.12
19. NCI-H1944  1.13
20. SK-LU-1  1.15
21. NCI-H647  1.19
22. CAL-12T  1.2
23. EPLC-272H  1.22
24. 201T  1.24
25. NCI-H1975  1.3
26. NCI-H1395  1.4

Same assay, conditions: first compound 0.253 µM

In order of falling relative viability:
1. CAL-12T  1.45
2. NCI-H1395  1.26
3. NCI-H322M  1.22
4. 201T  1.21
5. NCI-H1975  1.13
6. EPLC-272H  1.11
7. NCI-H2009  1.1
8. NCI-H460  1.09
9. NCI-H1437  1.08
10. A-427  1.04
11. NCI-H3122  1.04
12. NCI-H2023  1.01
13. RERF-LC-KJ  1.01
14. NCI-H1944  0.982
15. HCC-827  0.977
16. PC-14  0.973
17. NCI-H1755  0.963
18. NCI-H647  0.955
19. SK-LU-1  0.947
20. NCI-H1355  0.944
21. NCI-H1651  0.932
22. LXF-289  0.928
23. EKVX  0.868
24. NCI-H1734  0.86
25. NCI-H2228  0.801
26. NCI-H1915  0.764
27. PC-3 [JPC-3]  0.748
28. NCI-H23  0.742
29. NCI-H2347  0.738
30. HCC-15  0.693
31. HCC-78  0.667
32. NCI-H441  0.573
33. LC-2-ad  0.517
34. NCI-H1793  0.364
35. LCLC-97TM1  0.224

Same assay, conditions: first compound 0.8 µM

In order of rising relative viability:
1. LC-2-ad  0.507
2. HCC-15  0.692
3. SK-LU-1  0.747
4. NCI-H1734  0.784
5. NCI-H2347  0.809
6. A-427  0.83
7. NCI-H1915  0.835
8. PC-3 [JPC-3]  0.854
9. EKVX  0.867
10. HCC-78  0.879
11. LXF-289  0.894
12. NCI-H1355  0.913
13. NCI-H23  0.936
14. NCI-H647  0.938
15. NCI-H2228  0.953
16. RERF-LC-KJ  0.963
17. NCI-H2023  0.965
18. NCI-H1755  0.977
19. PC-14  0.982
20. NCI-H1944  0.992
21. HCC-827  0.995
22. NCI-H3122  0.996
23. EPLC-272H  1.01
24. NCI-H1975  1.07
25. NCI-H2009  1.08
26. NCI-H460  1.1
27. NCI-H1437  1.11
28. CAL-12T  1.14
29. NCI-H1651  1.14
30. NCI-H322M  1.19
31. 201T  1.22
32. NCI-H1395  1.23

Same assay, conditions: first compound 2.53 µM

In order of rising relative viability:
1. LC-2-ad  0.402
2. NCI-H441  0.479
3. LCLC-97TM1  0.509
4. NCI-H1793  0.545
5. NCI-H2228  0.577
6. HCC-15  0.693
7. PC-3 [JPC-3]  0.722
8. SK-LU-1  0.732
9. NCI-H1915  0.765
10. HCC-78  0.826
11. NCI-H1734  0.877
12. NCI-H23  0.89
13. NCI-H2347  0.917
14. EKVX  0.98
15. NCI-H2023  0.984
16. NCI-H1755  0.993
17. LXF-289  0.998
18. HCC-827  1.03
19. NCI-H1355  1.03
20. NCI-H3122  1.03
21. PC-14  1.05
22. RERF-LC-KJ  1.05
23. NCI-H1944  1.06
24. NCI-H460  1.11
25. A-427  1.12
26. NCI-H2009  1.14
27. NCI-H1651  1.15
28. NCI-H322M  1.16
29. NCI-H1437  1.16
30. NCI-H647  1.24
31. EPLC-272H  1.24
32. NCI-H1975  1.26
33. NCI-H1395  1.27
34. 201T  1.27
35. CAL-12T  1.5

Same assay, conditions: first compound 8 µM

In order of rising relative viability:
1. NCI-H2347  0.391
2. LCLC-97TM1  0.41
3. NCI-H441  0.431
4. HCC-78  0.757
5. NCI-H1915  0.768
6. SK-LU-1  0.801
7. NCI-H1734  0.884
8. LXF-289  0.919
9. NCI-H1395  0.924
10. NCI-H1651  0.991
11. HCC-827  1
12. NCI-H23  1.01
13. A-427  1.02
14. NCI-H460  1.04
15. 201T  1.16
16. NCI-H2009  1.18
17. NCI-H322M  1.22
18. NCI-H647  1.23
19. EPLC-272H  1.23
20. CAL-12T  1.35
